Data published in patent US20200017495A1, “NOVEL HETEROCYCLIC COMPOUNDS AND THEIR USE IN PREVENTING OR TREATING BACTERIAL INFECTIONS” (priority 2017, published 2020).

Tests used:
Test in all cases: MIC of compounds alone and combined with antibacterials, broth microdilution (CLSI)
Type in all cases: cell-based
[1] = system: Citrobacter freundii (CFR) isolates
Method in brief: (§1)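 Log-phase isolates were inoculated at a final 5.10^5 CFU/mL in cation-adjusted Mueller-Hinton broth and incubated 16-20 h at 35° C in ambient air. MIC was the lowest concentration preventing visible growth; for combinations, the antibacterial MIC was read at each compound concentration.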

[2] = system: Morganella morganii (MMO) isolates
Method in brief: as §1

[3] = system: Providencia rettgeri (PRE) isolates
Method in brief: as §1

SMILES: CC(C)(O/N=C(\C(=O)N[C@@H]1C(=O)N2C(C(=O)[O-])=C(C[n+]3ccccc3)CS[C@H]12)c1csc(N)n1)C(=O)O [CAZ, Ceftazidime]
- MIC ATB in combination ([1]; CFR UFR10, AF2 @ 8 μg/mL): <=0.25 μg/mL
- MIC ATB in combination ([1]; CFR UFR10, AF3 @ 8 μg/mL): <0.25 µg/mL
- MIC ATB in combination ([1]; CFR UFR11, AF2 @ 8 μg/mL): 8 µg/mL
- MIC ATB in combination ([1]; CFR UFR11, AF3 @ 8 μg/mL): 4 µg/mL
- MIC ATB in combination ([1]; CFR UFR37, AF2 @ 8 μg/mL): 8 µg/mL
- MIC ATB in combination ([1]; CFR UFR37, AF3 @ 8 μg/mL): <0.25 µg/mL
- MIC ATB in combination ([1]; CFR UFR83, AF2 @ 8 μg/mL): >128 µg/mL
- MIC ATB in combination ([1]; CFR UFR83, AF3 @ 8 μg/mL): >128 µg/mL
- MIC ATB in combination ([1]; CFR UFR146, AF2 @ 8 μg/mL): 2 µg/mL
- MIC ATB in combination ([1]; CFR UFR146, AF3 @ 8 μg/mL): 1 µg/mL
- MIC ATB in combination ([1]; CFR UFR248, AF2 @ 8 μg/mL): <0.25 µg/mL
- MIC ATB in combination ([1]; CFR UFR248, AF3 @ 8 μg/mL): <0.25 µg/mL
- MIC ATB in combination ([1]; CFR UFR249, AF2 @ 8 μg/mL): <=0.25 μg/mL
- MIC ATB in combination ([1]; CFR UFR249, AF3 @ 8 μg/mL): <0.25 µg/mL
- MIC ATB in combination ([1]; CFR UFR250, AF2 @ 8 μg/mL): <=0.25 μg/mL
- MIC ATB in combination ([1]; CFR UFR250, AF3 @ 8 μg/mL): <0.25 µg/mL
- MIC ([1]; strain CFR UFR11, genotype TEM-1, OXA-1, OXA-48): 8 µg/mL
- MIC ([1]; strain CFR UFR37, genotype TEM-1, CTX-M-15, NDM-1): >128 µg/mL
- MIC ([1]; strain CFR UFR83, genotype TEM-3, AmpC): >128 µg/mL
- MIC ([1]; strain CFR UFR146, genotype TEM-1, KPC-2): 32 µg/mL
- MIC ([1]; strain CFR UFR147, genotype TEM-1, CTX-M-15, OXA-1, OXA-181, OXA-10, OXA-9, NDM-1, ArmA, dfrA12, aadA2, antibiotic alone): >128 µg/mL
- MIC ATB in combination ([1]; strain CFR UFR147, with AF2 @ 8 μg/mL): <0.25 µg/mL
- MIC ATB in combination ([1]; strain CFR UFR147, with AF3 @ 8 μg/mL): <0.25 µg/mL
- MIC ([1]; strain CFR UFR148, genotype TEM-1, TEM-2, CTX-M-15, NDM-1, antibiotic alone): >128 µg/mL
- MIC ATB in combination ([1]; strain CFR UFR148, with AF2 @ 8 μg/mL): <0.25 µg/mL
- MIC ATB in combination ([1]; strain CFR UFR148, with AF3 @ 8 μg/mL): <0.25 µg/mL
- MIC ([1]; strain CFR UFR249, genotype TEM-1, CTX-M-15): 64 µg/mL
- MIC ATB in combination ([1]; strain CFR UFR251, with AF2 @ 8 μg/mL): 0.5 µg/mL
- MIC ATB in combination ([1]; strain CFR UFR251, with AF3 @ 8 μg/mL): <0.25 µg/mL
- MIC ([1]; strain CFR UFR252, genotype VIM-2, antibiotic alone): 64 µg/mL
- MIC ATB in combination ([1]; strain CFR UFR252, with AF2 @ 8 μg/mL): 8 µg/mL
- MIC ATB in combination ([1]; strain CFR UFR252, with AF3 @ 8 μg/mL): 16 µg/mL
- MIC ([1]; strain CFR UFR253, genotype TEM-1, SHV-12, OXA-48): >128 µg/mL
- MIC ATB in combination ([1]; strain CFR UFR253, with AF2 @ 8 μg/mL): 8 µg/mL
- MIC ATB in combination ([1]; strain CFR UFR253, with AF3 @ 8 μg/mL): 4 µg/mL
- MIC ATB in combination ([1]; strain CFR UFR254, with AF2 @ 8 μg/mL): <0.25 µg/mL
- MIC ATB in combination ([1]; strain CFR UFR254, with AF3 @ 8 μg/mL): 0.5 µg/mL
- MIC ATB in combination ([2]; MMO 200321, AF2 @ 8 μg/mL): <=0.25 μg/mL
- MIC ATB in combination ([2]; MMO 200321, AF3 @ 8 μg/mL): <=0.25 μg/mL
- MIC ATB in combination ([2]; MMO UFR144, AF2 @ 8 μg/mL): <=0.25 μg/mL
- MIC ATB in combination ([2]; MMO UFR144, AF3 @ 8 μg/mL): <=0.25 μg/mL
- MIC ATB in combination ([2]; MMO UFR240, AF2 @ 8 μg/mL): <=0.25 μg/mL
- MIC ATB in combination ([2]; MMO UFR240, AF3 @ 8 μg/mL): <=0.25 μg/mL
- MIC ATB in combination ([2]; MMO UFR241, AF2 @ 8 μg/mL): <=0.25 μg/mL
- MIC ATB in combination ([2]; MMO UFR241, AF3 @ 8 μg/mL): <=0.25 μg/mL
- MIC ATB in combination ([2]; MMO UFR242, AF2 @ 8 μg/mL): <=0.25 μg/mL
- MIC ATB in combination ([2]; MMO UFR242, AF3 @ 8 μg/mL): <=0.25 μg/mL
- MIC ATB in combination ([2]; MMO UFR243, AF2 @ 8 μg/mL): <=0.25 μg/mL
- MIC ATB in combination ([2]; MMO UFR243, AF3 @ 8 μg/mL): <=0.25 μg/mL
- MIC ATB in combination ([2]; MMO UFR244, AF2 @ 8 μg/mL): <=0.25 μg/mL
- MIC ATB in combination ([2]; MMO UFR244, AF3 @ 8 μg/mL): <=0.25 μg/mL
- MIC ATB in combination ([2]; MMO UFR245, AF2 @ 8 μg/mL): <=0.25 μg/mL
- MIC ATB in combination ([2]; MMO UFR245, AF3 @ 8 μg/mL): <=0.25 μg/mL
- MIC ATB in combination ([2]; MMO UFR246, AF2 @ 8 μg/mL): <=0.25 μg/mL
- MIC ATB in combination ([2]; MMO UFR246, AF3 @ 8 μg/mL): <=0.25 μg/mL
- MIC ATB in combination ([2]; MMO UFR247, AF2 @ 8 μg/mL): <=0.25 μg/mL
- MIC ATB in combination ([2]; MMO UFR247, AF3 @ 8 μg/mL): <=0.25 μg/mL
- MIC ([2]; strain MMO 200321, genotype TEM-1, CTX-M-15, OXA-1): 16 µg/mL
- MIC ([2]; strain MMO UFR144, genotype TEM-1, CTX-M-15): 8 µg/mL
- MIC ATB in combination ([2]; strain MMO UFR145, with AF2 @ 8 μg/mL): >128 µg/mL
- MIC ATB in combination ([2]; strain MMO UFR145, with AF3 @ 8 μg/mL): >128 µg/mL
- MIC ([2]; strain MMO UFR240, genotype CTX-M-9): 0.5 µg/mL
- MIC ([2]; strain MMO UFR241, genotype TEM-1, CTX-M-15): 8 µg/mL
- MIC ([2]; strain MMO UFR242, genotype TEM-52): 32 µg/mL
- MIC ([2]; strain MMO UFR243, genotype DHA-1): 1 µg/mL
- MIC ([2]; strain MMO UFR244, genotype DHA-1): 0.5 µg/mL
- MIC ([2]; strain MMO UFR245, genotype DHA-1): 8 µg/mL
- MIC ([2]; strain MMO UFR246, genotype DHA-1): 4 µg/mL
- MIC ([2]; strain MMO UFR247, genotype DHA-1): 0.5 µg/mL
- MIC ATB in combination ([3]; PRE UFR99, AF2 @ 8 μg/mL): >128 µg/mL
- MIC ATB in combination ([3]; PRE UFR99, AF3 @ 8 μg/mL): >128 µg/mL
- MIC ATB in combination ([3]; strain PRE UFR96, with AF2 @ 8 μg/mL): <0.25 µg/mL
- MIC ATB in combination ([3]; strain PRE UFR96, with AF3 @ 8 μg/mL): <0.25 µg/mL
- MIC ATB in combination ([3]; strain PRE UFR97, with AF2 @ 8 μg/mL): >128 µg/mL
- MIC ATB in combination ([3]; strain PRE UFR97, with AF3 @ 8 μg/mL): >128 µg/mL
- MIC ([3]; strain PRE UFR236, genotype TEM-1, OXA-48): 32 µg/mL
- MIC ATB in combination ([3]; strain PRE UFR236, with AF2 @ 8 μg/mL): 0.5 µg/mL
- MIC ATB in combination ([3]; strain PRE UFR236, with AF3 @ 8 μg/mL): <=0.25 μg/mL
